In PMC9865601 (2023):

How the values were obtained:
[1] = test system: bcl-2 (DNA, i motif) CAGCCCCGCTCCCGCCCCCTTCCTCCCGCGCCCGCCCCT; test: CD melting, heating ramp, 285 nm; conditions: 100 mM KCl; 10 mM LiAsO2Me2, pH 5.5; 2.5 µM oligo, 20 µM IMC-48
[2] = test system: DAP-Mut (DNA, single strand) CTACCGCTAACGCCTTCGCTCTCGCTTTC; test: bio-layer interferometry; conditions: 50 mM KCl; 50 mM Tris-HCl, 2% DMSO, 0.05% P20; tested up to 100 µM
[3] = test system: c-myc (DNA, i motif) TCCCCACCTTCCCCACCCTCCCCACCCTCCCCA; test: CD melting, heating ramp, 285 nm; conditions: 100 mM KCl; 10 mM LiAsO2Me2, pH 5.5; 2.5 µM oligo, 20 µM IMC-48
[4] = test system: HRAS (DNA, i motif) CGCCCGTGCCCTGCGCCCGCAACCCGA; test: CD melting, heating ramp, 285 nm; conditions: 100 mM KCl; 10 mM LiAsO2Me2, pH 5.5; 2.5 µM oligo, 20 µM IMC-48
[5] = test system: ssDNA (DNA, single strand) GGCATAGTGCGTGGGCG; test: bio-layer interferometry; conditions: 50 mM KCl; 50 mM Tris-HCl, 2% DMSO, 0.05% P20; tested up to 100 µM
[6] = test system: c-myc (DNA, i motif) TCCCCACCTTCCCCACCCTCCCCACCCTCCCCA; test: bio-layer interferometry; conditions: 50 mM KCl; 50 mM Tris-HCl, 2% DMSO, 0.05% P20; pH 5.5 (also pH 7.5); tested to 100 µM
[7] = test system: HP-GC (DNA, hairpin) CGCGCGCGTTTTCGCGCGCG; test: bio-layer interferometry; conditions: 50 mM KCl; 50 mM Tris-HCl, 2% DMSO, 0.05% P20; tested up to 100 µM
[8] = test system: Htelo-C (DNA, i motif) TAACCCTAACCCTAACCCTAACCCTAA; test: bio-layer interferometry; conditions: 50 mM KCl; 50 mM Tris-HCl, 2% DMSO, 0.05% P20; pH 5.5 (also pH 7.5); tested to 100 µM
[9] = test system: HTelo-C (DNA, i motif) TAACCCTAACCCTAACCCTAACCCTAA; test: CD melting, heating ramp, 285 nm; conditions: 100 mM KCl; 10 mM LiAsO2Me2, pH 5.5; 2.5 µM oligo, 20 µM IMC-48

∆Tm [1]: 0.2 ± 0.4 °C
binding [2]: no
∆Tm [3]: −0.5 ± 0.1 °C
∆Tm [4]: −1.2 ± 1.1 °C
binding [5]: no
binding [6]: no
binding [7]: no
binding [8]: no
∆Tm [9]: −1.2 ± 0.5 °C
Structure (SMILES): CC(C)CCC[C@@H](C)[C@H]1CC[C@H]2[C@@H]3CC[C@H]4C[C@H](NC(=O)C[N+]5(C)CCCCC5)CC[C@]4(C)[C@H]3CC[C@]12C
